In patent US20250302740A1, “A CONTROLLED RELEASE, ANTIMICROBIAL GEL FOR THE TREATMENT OF VAGINAL INFECTIONS” (priority 2022, published 2025):
Where two headings read alike, the source gives them in different places.

Columns and labels:
[1] = system: Candida albicans; assay: MIC and MFC against Candida albicans; format: cell-based
Protocol: (§1) A study was carried out to determine the effectiveness of thymol and carvacrol, singly or in combination, against bacterial vaginosis, trichomoniasis, candidiasis and lactobacilli relative to metronidazole, clotrimazole and clindamycin.
(§2) The results are shown in Table 2, wherein minimum inhibitory concentration (MIC) and minimum bactericidal (or fungicidal) concentration (MBC or MFC) are shown: […]

[2] = system: Gardnerella vaginalis; assay: MIC and MBC against Gardnerella vaginalis; format: cell-based
Protocol: as §1, §2

[3] = system: Lactobacillus; assay: MIC and MBC against Lactobacillus; format: cell-based
Protocol: as §1, §2

[4] = system: Gardnerella vaginalis biofilm; conditions: cited from earlier work
[5] = system: C. albicans biofilms; conditions: cited from earlier work
[6] = system: Lactobacillus acidophilus; assay: Inhibition of Lactobacillus acidophilus across thymol concentration range; format: cell-based; conditions: steady rate across the concentration range
Excerpt: Lactobacillus acidophilus, with a steady rate of <10% inhibition of Lactobacillus acidophilus across the concentration range, compared to inhibition range of 10% to 100% across the same concentration range.

[7] = system: G. vaginalis; conditions: cited from earlier work
[8] = system: Gardnerella vaginalis biofilm; conditions: cited from earlier work; for Mature biofilm inhibition: Gardnerella mature biofilm; for Native biofilm inhibition: Gardnerella native biofilm

**Q.** Which results are given for `Cc1ccc(C(C)C)cc1O` [Carvacrol]?
**A.** MFC [1]: 1250 µg/mL; MIC [1]: 625 µg/mL; MBC [2]: 156 µg/mL; MIC [2]: 156 µg/mL; MBC [3]: 2440 µg/mL; MIC [3]: 2440 µg/mL

**Q.** For `CCC[C@@H]1C[C@@H](C(=O)N[C@@H]([C@H]2O[C@H](SC)[C@H](O)[C@@H](O)[C@H]2O)[C@H](C)Cl)N(C)C1` [Clindamycin, reference compound], which MBC ([2]; read-out: MBC) is on record?
**A.** Its MBC is 8 µg/mL.

**Q.** What about the MIC ([2]; read-out: MIC) of the same compound?
**A.** The MIC was 4 µg/mL.

**Q.** What about the MIC ([3]; read-out: MIC) of the same compound?
**A.** The MIC was 1000 µg/mL.

**Q.** Which results are given for `Clc1ccccc1C(c1ccccc1)(c1ccccc1)n1ccnc1` [Clotrimazole, reference compound]?
**A.** MFC ([1]; read-out: MFC): ≥ 2000 µg/mL; MIC ([1]; read-out: MIC): 1000 µg/mL

**Q.** For `Cc1ncc([N+](=O)[O-])n1CCO` [Metronidazole, reference compound], which “Prevention of biofilm formation” value ([4]; Gardnerella vaginalis) is on record?
**A.** The value was “only able to prevent biofilm formation”.

**Q.** And the “Inhibition or killing of mature biofilm” value ([4]; mature biofilm of Gardnerella vaginalis)?
**A.** Its value is “unable to inhibit or kill”.

**Q.** And the MIC ([2]; read-out: MIC)?
**A.** Its MIC is 64 µg/mL.

**Q.** What about the MIC ([3]; read-out: MIC) of the same compound?
**A.** Its MIC is no less than 1000 µg/mL.

**Q.** Which “Destruction of mature biofilms” value ([5]; C. albicans mature biofilms) does the source give for `Cc1ccc(C(C)C)c(O)c1` [Thymol] here?
**A.** Its value is “considerable effect”.

**Q.** And the “Reduction in biofilms formed” value ([5]; C. albicans, 0.5xMIC, P<0.05)?
**A.** Its value is “significant reduction”.

**Q.** And the MFC ([1]; read-out: MFC)?
**A.** Its MFC is 2500 µg/mL.

**Q.** And the MIC ([1]; read-out: MIC)?
**A.** Its MIC is 125 µg/mL.

**Q.** And the MBC ([2]; read-out: MBC)?
**A.** The MBC was 250 µg/mL.

**Q.** What about the MIC ([2]; read-out: MIC) of the same compound?
**A.** The MIC was 175 µg/mL.

**Q.** And the “Inhibition of Lactobacillus acidophilus” value [6]?
**A.** Its value is less than 10%.

**Q.** What about the “Adhesion of G. vaginalis to human vaginal cells” value [7] of the same compound?
**A.** Its value is “interfere with the adhesion”.

**Q.** And the Mature biofilm inhibition ([8]; 1/4 MIC)?
**A.** The Mature biofilm inhibition was 13.20%.

**Q.** And the Mature biofilm inhibition ([8]; 1 MIC)?
**A.** The Mature biofilm inhibition was 26.18%.

**Q.** And the Native biofilm inhibition ([8]; 1/8 MIC)?
**A.** The Native biofilm inhibition was 11.39%.

**Q.** What about the Native biofilm inhibition ([8]; 1 MIC) of the same compound?
**A.** The Native biofilm inhibition was 32.77%.
